From EP0563734A1, “9-fluoro-7-oxo-7H-pyrido(1,2,3-de)(1,4)benzoxazine carboxylic acids and esters and their use as antiviral agents” (BAYER AG, priority 1992, dated 1993)

System: Hepatitis B Virus
Test: HBV test system: HBV-DNA content in the supernatant of HBV-DNA-transfected hepatoma cells (HEP G2.2.15), after PEG precipitation, with a non-radioactive HBV genomic DNA probe
Type: cell-based
Conditions: HepG2.2.15, 50%ige Hemmung der HBV-DNA Konzentration im Überstand, read-out: IC₅₀
Text: Der Nachweis wurde in mit Hepatitis B Virus DNA transfizierten Hepatomzellen (HEP G2.2.15) geführt. Die Ergebnisse der unten aufgeführten Beispiele wurden zu dem in der folgenden Literaturangabe [Sells, M.A.; Chen, M.L., Acs, G., Proc. Natl. Acad. Sci. USA S. 1005 - 1009, Vol. 84 (1987] beschriebenen HBV-Testsystem ermittelt: Transfizierte Hepatomzellen (HEP G2.2.15) wurden mit verschiedenen Konzentrationen der jeweiligen Verbindung inkubiert. Durch Behandlung der transfizierten Hepatomzellinie HEP G2.2.15 mit den erfindungsgemäßen Verbindungen konnte die Reduktion der virusspezifischen HBV-DNA im Überstand sowie eine Reduktion des HBsAg Spiegels gezeigt werden. Es wurde weiter gefunden, daß die erfindungsgemäßen Verbindungen zu einer Reduktion der replikativen Intermediate der Hepatitisviren führen. Im Überstand der Zellkulturen wurde nach PEG Fällung der Gehalt an HBV-DNA bestimmt. Dies geschah unter Verwendung einer nicht radioaktiv markierten HBV genomischen DNA Probe [Pauly, P., 1982, Ph. D. Thesis, University of Göttingen, F.R.G.; Köchel et al., 1990, EMBL, Accession-Nr. X 51790]. Gleichzeitig erfolgte der Nachweis der Beeinflussung der HBsAg Bildung mittels eines kommerziell erhältlichen ELISA Tests. Die angegebenen IC₅₀-Werte beziehen sich auf die Substratkonzentrationen, die unter den oben aufgeführten Testbedingungen eine 50%ige Hemmung der HBV-DNA Konzentration im Überstand bewirken. Tabelle A
Gleichzeitig erfolgte die Bestimmung des möglicherweise vorhandenen cytotoxischen Einflusses der erfindungsgemäßen Verbindungen mittels Kristallviolettfärbung bzw. über den Einbau von radioaktiv markiertem Thymidin in die zelluläre DNA.

Row | SMILES | IC50 [nM]
1 | CC1=COc2c(N3CCN(C4CC4)CC3)c(F)cc3c(=O)c(C(=O)O)cn1c23 [Beispiel 9, 10-(4-Cyclopropyl-piperazin-1-yl)-9-fluor-3-methyl-7-oxo-7H-pyrido-[1,2,3-de][1,4]benzoxazin-6-carbonsäure] | 100
2 | CCOC(=O)C1=Cn2cc(C(=O)OCC)c(=O)c3cc(F)c(F)c(c32)O1 [Beispiel I, 9,10-Difluor-2-ethoxycarbonyl-7-oxo-7H-pyrido[1,2,3-de][1,4]benzoxazin-6-carbonsäureethylester] | 500
3 | CCOC(=O)c1cn2c3c(c(F)c(F)cc3c1=O)OC(C(C)(C)CCCOc1ccccc1)=C2 [Beispiel VIII, 9,10-Difluor-2-(2-methyl-5-phenoxy-2-pentyl)-7-oxo-7H-pyrido[1,2,3-de][1,4]-benzoxazin-6-carbonsäureethylester] | 500
